Measured values published in PubChem BioAssay AID1996.
Converted amounts (≈) assume the structure as drawn.

details: buffer; pH 7.4; 200.0 µM

SMILES	solubility kinetic
N#CC1=C(N)Oc2cc(N)ccc2C1c1ccc(Cl)cc1 (centres undefined)	3.4 µg/mL (≈ 11.4 µM)
Cc1nn(C)c(Cl)c1CN1CCN(CCC(C)C)C(CCO)C1 (centres undefined)	> 51.4 µg/mL
COC(=O)Nc1ccc(S(=O)(=O)N2CCCC(C(=O)O)C2)cc1 (centres undefined)	50.4 µg/mL (≈ 147 µM)
C=CCNc1nc(C(=O)OCC(=O)c2ccccc2)cs1	4.5 µg/mL (≈ 14.9 µM)
CCOc1ccc(/C=C/c2nc(C#N)c(NCCCN(C)C)o2)cc1	> 51.1 µg/mL
CN(C(=O)CSC(=O)c1ccccc1)c1ccccc1	40.6 µg/mL (≈ 142 µM)
O=C(/C=C/c1c(Cl)cccc1Cl)NCCCn1ccnc1	46.1 µg/mL (≈ 142 µM)
O=C(O)Cc1c[nH]c2ccc(O)cc12	> 28.7 µg/mL
O=C1CCCC(O)=C1N=Nc1ccc(C(=O)O)cc1	> 39 µg/mL
Nc1nc(NCc2ccco2)nc(N2CCOCC2)c1[N+](=O)[O-]	> 48 µg/mL
FC(F)(F)c1ccccc1CNCc1ccc2c(c1)OCO2	25.8 µg/mL (≈ 83.4 µM)
CCOC(=O)C1=C(C)NC(=S)NC1c1ccco1 (centres undefined)	39.9 µg/mL (≈ 150 µM)
O=C1SCCC1NS(=O)(=O)c1ccc([N+](=O)[O-])cc1 (centres undefined)	38.3 µg/mL (≈ 127 µM)
CC(=O)c1ccc(NC(=O)NC2CCCCCCC2)cc1	5.1 µg/mL (≈ 17.7 µM)
N#Cc1c(-c2ccncc2)c2c([nH]c1=O)-c1ccccc1OC2	14.9 µg/mL (≈ 49.5 µM)
COc1ccccc1Nc1nc(-c2sc(N)nc2C)cs1	19.2 µg/mL (≈ 60.3 µM)
CCOC(=O)c1c(C)[nH]c(C(=O)NCC(c2ccco2)N2CCCCC2)c1C (centres undefined)	2 µg/mL (≈ 5.16 µM)
O=C1CSC(c2ccc([N+](=O)[O-])cc2)N1c1ccc(O)cc1 (centres undefined)	46.4 µg/mL (≈ 147 µM)
Cc1[nH]c2ccc(C(=O)NC3CCCC3)cc2c1C	> 38.5 µg/mL
O=C(O)C1C2C=CC(C2)C1C(=O)Nc1cccc(Cl)c1 (centres undefined)	42.8 µg/mL (≈ 147 µM)
CCCCC(CC)CNC(=O)C(=O)C1C(=O)Nc2ccccc21 (centres undefined)	26.1 µg/mL (≈ 82.5 µM)
CC(=O)N1CCN(C(=O)c2cc3c(s2)CCCC3)CC1	> 43.9 µg/mL
COc1ccc(C)cc1Nc1nc(N)c2cc(OC)c(OC)cc2n1	40.1 µg/mL (≈ 118 µM)
CCC1(CC)C(=O)N(C)C(=O)NC1=NC	> 31.7 µg/mL
CC(C)NC(=O)c1ccc(CN2CCc3ccccc3C2)cc1	2.6 µg/mL (≈ 8.43 µM)
COc1cccc(C(=O)c2cc3cc(Cl)ccc3[nH]2)c1	< 0.6 µg/mL
COc1ccc(/C=C/C(=O)OCC(=O)N(C)CC(=O)Nc2ccc(C)cc2)c(OC)c1	4.4 µg/mL (≈ 10.3 µM)
O=C(Cc1ccc(Cl)cc1)Nc1cccc2ncccc12	3.9 µg/mL (≈ 13.1 µM)

The remaining lines, values ahead:

solubility kinetic	SMILES
35.6 µg/mL (≈ 133 µM)	CCOC(=O)CSc1nc(C)cc(C)c1C(N)=O
2.1 µg/mL (≈ 4.7 µM)	COc1ccc(CNC(=O)COC(=O)c2ccc(S(=O)(=O)N3CCCCC3)cc2)cc1
8.4 µg/mL (≈ 32.7 µM)	O=C(Nc1cc(Cl)cc(Cl)c1)c1ccno1
13.1 µg/mL (≈ 28 µM)	COc1ccc(NS(=O)(=O)c2cc(NC(=O)c3ccccc3)ccc2N2CCOCC2)cc1
< 0.3 µg/mL	O=c1c2ccccc2[nH]c(=S)n1Cc1ccccc1
4.9 µg/mL (≈ 13.5 µM)	CC(NC(=S)NC(=O)c1ccccc1Br)c1ccccc1 (centres undefined)
4.4 µg/mL (≈ 13 µM)	CCOc1cc(C=O)ccc1OCc1cc(=O)n2cc(C)ccc2n1
11.8 µg/mL (≈ 36.8 µM)	COc1ccccc1CNC(=S)NCc1ccc(Cl)cc1
> 63.2 µg/mL	CN(CCCC(=O)N1CCN(c2ncccn2)CC1)S(=O)(=O)c1ccc(F)cc1
23 µg/mL (≈ 65.3 µM)	COC(=O)c1ccc(S(=O)(=O)NCCc2ccccc2OC)n1C
43.3 µg/mL (≈ 128 µM)	O=CN1CCN(CC(O)Cn2c3ccccc3c3ccccc32)CC1 (centres undefined)
14.4 µg/mL (≈ 45.8 µM)	Cc1cc(NC(=O)CS(=O)(=O)c2ccc(Cl)cc2)no1
> 36.3 µg/mL	CC(C)OC(=O)Cn1cc(C#N)c2ccccc21
3.1 µg/mL (≈ 9.38 µM)	Cc1ccc(S(=O)(=O)Nc2ccccc2N2CCCCC2)cc1
> 43.3 µg/mL	CC1Oc2ccccc2N(CC(=O)NC2CCCC2)C1=O (centres undefined)
20.9 µg/mL (≈ 74.8 µM)	Cc1cccc(NC(=O)/C(C#N)=C/c2ccccc2O)n1

solubility kinetic	SMILES
46.1 µg/mL (≈ 146 µM)	CCCC(=O)Oc1ccc(-c2nccc(C(OC)OC)n2)cc1
13.4 µg/mL (≈ 42.5 µM)	Cc1ccc(C(C)c2c(C)c([N+](=O)[O-])cc(C)c2[N+](=O)[O-])cn1 (centres undefined)
> 44.7 µg/mL	COc1ccc(OC)c(S(=O)(=O)Nc2cc(C)on2)c1
23.1 µg/mL (≈ 99 µM)	Cc1cc(N)ccc1NC(=O)CN1CCCC1
> 62.5 µg/mL	Cc1ccc(C(=O)N(C)Cc2nc3ccccc3c(=O)[nH]2)cc1NC(=O)c1ccco1
> 40.1 µg/mL	COc1ccc(CC(=O)Oc2ccc(C#N)cc2)cc1
9.3 µg/mL (≈ 22.7 µM)	O=C(NCCc1ccccc1)c1ccc(Cl)c(S(=O)(=O)N2CCOCC2)c1
7.2 µg/mL (≈ 27.6 µM)	CC1=CC(C)(C)NC(=S)N1C(C)c1ccccc1 (centres undefined)
> 44.6 µg/mL	O=C(CNC(=O)c1ccc(Br)cc1)NC1CC1
26.4 µg/mL (≈ 77.3 µM)	COc1ccc(CNC(=O)CSc2nc(SC)ns2)cc1
> 50.8 µg/mL	CCN(CC(=O)N1CCCCCC1)S(=O)(=O)c1ccc(C)cc1
8.5 µg/mL (≈ 28.5 µM)	O=C(NCCCCc1ccccc1)c1cccc([N+](=O)[O-])c1
67.4 µg/mL (≈ 136 µM)	COc1ccc(Cl)cc1NC(=O)CN(C)C(=O)c1cccc(S(=O)(=O)N2CCN(C)CC2)c1
> 55.4 µg/mL	CCOC(=O)C1=C(COC(=O)c2ccc([N+](=O)[O-])s2)NC(=O)NC1C (centres undefined)
45.7 µg/mL (≈ 132 µM)	Cc1ccc(/C=C2\CCn3c2nc2cc(C(=O)O)ccc2c3=O)c(C)c1
